Results as given in article PMC5218480 (PLoS ONE, 2017).

Tested on: MV-4-11 cells
Test: Gene expression microarray analysis (Affymetrix PrimeView) and GSEA
Format: cell-based, human
Parameters: RFU PODN (11730768_x_at) / Fold change /veh PODN (11730768_x_at) / RFU LINC00158 (11744669_a_at) / Fold change /veh LINC00158 (11744669_a_at) / RFU DUSP10 (11751237_a_at) / Fold change /veh DUSP10 (11751237_a_at) / RFU ID3 (11757404_x_at) / Fold change /veh ID3 (11757404_x_at) / RFU PLEKHG5 (11737974_s_at) / Fold change /veh PLEKHG5 (11737974_s_at) / RFU LRRC4B (11730491_at) / Fold change /veh LRRC4B (11730491_at) / RFU GIMAP4 (11747438_a_at) / Fold change /veh GIMAP4 (11747438_a_at) / RFU KRT8 (11758183_x_at) / Fold change /veh KRT8 (11758183_x_at) / RFU CNN1 (11734310_a_at) / Fold change /veh CNN1 (11734310_a_at) / RFU VPS37D (11726825_at) / Fold change /veh VPS37D (11726825_at) / RFU C10orf10 (11716522_x_at) / Fold change /veh C10orf10 (11716522_x_at) / RFU KIR2DL2 /// KIR2DL4 /// KIR2DL5A /// KIR2DL5B /// KIR2DS1 /// KIR2DS2 /// KIR2DS3 /// KIR2DS4 /// KIR3DL3 /// KIR3DL3 /// KIR3DS1 (11738374_at) / Fold change /veh KIR2DL2 /// KIR2DL4 /// KIR2DL5A /// KIR2DL5B /// KIR2DS1 /// KIR2DS2 /// KIR2DS3 /// KIR2DS4 /// KIR3DL3 /// KIR3DL3 /// KIR3DS1 (11738374_at) / RFU C1QL1 (11718748_at) / Fold change /veh C1QL1 (11718748_at) / RFU TMPRSS4 (11747572_a_at) / Fold change /veh TMPRSS4 (11747572_a_at) / RFU HAMP (11756126_x_at) / Fold change /veh HAMP (11756126_x_at) / RFU RNFT2 (11725882_a_at) / Fold change /veh RNFT2 (11725882_a_at) / RFU NR4A2 (11747474_a_at) / Fold change /veh NR4A2 (11747474_a_at) / RFU ABCC12 (11746883_a_at) / Fold change /veh ABCC12 (11746883_a_at) / RFU TMEM136 (11760407_x_at) / Fold change /veh TMEM136 (11760407_x_at) / RFU CLDN22 /// WWC2 (11732394_at) / Fold change /veh CLDN22 /// WWC2 (11732394_at) / RFU HLA-DPB1 (11760878_x_at) / Fold change /veh HLA-DPB1 (11760878_x_at) / RFU SPINT1 (11716480_a_at) / Fold change /veh SPINT1 (11716480_a_at) / RFU GAP43 (11754022_s_at) / Fold change /veh GAP43 (11754022_s_at) / RFU A4GNT (11735810_at) / Fold change /veh A4GNT (11735810_at) / RFU PRB3 (11715151_x_at) / Fold change /veh PRB3 (11715151_x_at) / RFU TUBB4B (11761932_at) / Fold change /veh TUBB4B (11761932_at) / RFU CAPN14 (11732068_a_at) / Fold change /veh CAPN14 (11732068_a_at) / RFU TMCC2 (11721928_a_at) / Fold change /veh TMCC2 (11721928_a_at) / RFU IRGQ (11745062_a_at) / Fold change /veh IRGQ (11745062_a_at) / RFU FAM174B (11720279_a_at) / Fold change /veh FAM174B (11720279_a_at) / RFU TMPRSS4 (11748680_a_at) / Fold change /veh TMPRSS4 (11748680_a_at) / RFU FAM212B (11763350_a_at) / Fold change /veh FAM212B (11763350_a_at) / RFU PLEKHG5 (11743358_a_at) / Fold change /veh PLEKHG5 (11743358_a_at) / RFU ZSCAN30 (11745921_a_at) / Fold change /veh ZSCAN30 (11745921_a_at) / RFU CMKLR1 (11741424_a_at) / Fold change /veh CMKLR1 (11741424_a_at) / RFU LOC101060620 /// MAPK8IP1 (11723275_at) / Fold change /veh LOC101060620 /// MAPK8IP1 (11723275_at) / RFU SPTSSB (11747773_x_at) / Fold change /veh SPTSSB (11747773_x_at) / RFU PRSS12 (11739890_at) / Fold change /veh PRSS12 (11739890_at) / RFU BIN1 (11741810_x_at) / Fold change /veh BIN1 (11741810_x_at) / RFU WNT11 (11732464_a_at) / Fold change /veh WNT11 (11732464_a_at) / RFU C10orf10 (11716521_a_at) / Fold change /veh C10orf10 (11716521_a_at) / RFU C5orf56 (11738089_at) / Fold change /veh C5orf56 (11738089_at) / RFU CYB561 (11721691_x_at) / Fold change /veh CYB561 (11721691_x_at) / RFU ANKRD19P (11752326_a_at) / Fold change /veh ANKRD19P (11752326_a_at) / RFU OR2T12 /// OR2T33 /// OR2T8 (11738714_s_at) / Fold change /veh OR2T12 /// OR2T33 /// OR2T8 (11738714_s_at) / RFU VCAN (11748164_a_at) / Fold change /veh VCAN (11748164_a_at) / RFU JSRP1 (11732532_at) / Fold change /veh JSRP1 (11732532_at) / RFU KRTAP10-11 (11738290_x_at) / Fold change /veh KRTAP10-11 (11738290_x_at) / RFU MYO3A (11730013_a_at) / Fold change /veh MYO3A (11730013_a_at) / RFU EBF3 (11725865_a_at) / Fold change /veh EBF3 (11725865_a_at) / RFU CAMK2N1 (11719241_x_at) / Fold change /veh CAMK2N1 (11719241_x_at) / RFU C5orf56 (11738088_a_at) / Fold change /veh C5orf56 (11738088_a_at) / RFU OLFML3 (11715873_a_at) / Fold change /veh OLFML3 (11715873_a_at) / RFU LOC100653217 /// NTM (11731650_a_at) / Fold change /veh LOC100653217 /// NTM (11731650_a_at) / RFU MAPK11 (11762145_a_at) / Fold change /veh MAPK11 (11762145_a_at) / RFU FIZ1 (11724087_x_at) / Fold change /veh FIZ1 (11724087_x_at) / RFU OASL (11726364_x_at) / Fold change /veh OASL (11726364_x_at) / RFU SOX15 (11748057_x_at) / Fold change /veh SOX15 (11748057_x_at) / RFU CD79A (11719716_a_at) / Fold change /veh CD79A (11719716_a_at) / RFU HIST1H1D (11736915_at) / Fold change /veh HIST1H1D (11736915_at) / RFU CASKIN2 (11723855_a_at) / Fold change /veh CASKIN2 (11723855_a_at) / RFU LOC730098 (11760151_x_at) / Fold change /veh LOC730098 (11760151_x_at) / RFU OR4N2 (11742367_at) / Fold change /veh OR4N2 (11742367_at) / RFU PRRT2 (11749266_a_at) / Fold change /veh PRRT2 (11749266_a_at) / RFU SNX32 (11753110_a_at) / Fold change /veh SNX32 (11753110_a_at) / RFU CDHR5 (11726645_a_at) / Fold change /veh CDHR5 (11726645_a_at) / RFU RCAN1 (11760418_a_at) / Fold change /veh RCAN1 (11760418_a_at) / RFU FAM167A (11723789_a_at) / Fold change /veh FAM167A (11723789_a_at) / RFU FAM26E (11764081_at) / Fold change /veh FAM26E (11764081_at) / RFU ISYNA1 (11749810_s_at) / Fold change /veh ISYNA1 (11749810_s_at) / RFU ACY1 (11761880_at) / Fold change /veh ACY1 (11761880_at) / RFU 11764098_at / Fold change /veh 11764098_at / RFU SAMD14 (11745864_x_at) / Fold change /veh SAMD14 (11745864_x_at) / RFU NPB (11741838_a_at) / Fold change /veh NPB (11741838_a_at) / RFU TMPRSS6 (11731388_a_at) / Fold change /veh TMPRSS6 (11731388_a_at) / RFU KRTAP10-2 (11738614_at) / Fold change /veh KRTAP10-2 (11738614_at) / RFU ARHGAP8 /// PRR5-ARHGAP8 (11727945_x_at) / Fold change /veh ARHGAP8 /// PRR5-ARHGAP8 (11727945_x_at) / RFU KRTAP5-7 /// NADSYN1 (11734609_at) / Fold change /veh KRTAP5-7 /// NADSYN1 (11734609_at) / RFU RASL12 (11751679_a_at) / Fold change /veh RASL12 (11751679_a_at) / RFU CDKN2B (11736163_a_at) / Fold change /veh CDKN2B (11736163_a_at) / RFU PRF1 (11729649_at) / Fold change /veh PRF1 (11729649_at) / RFU, ZNF638 /// ZNF638-IT1 / Fold change vs veh, ZNF638 /// ZNF638-IT1 / RFU, PANK3 / Fold change vs veh, PANK3 / RFU, SH3YL1 / Fold change vs veh, SH3YL1 / RFU, ZEB2 / Fold change vs veh, ZEB2 / RFU, NRIP1 / Fold change vs veh, NRIP1 / RFU, PTTG1IP / Fold change vs veh, PTTG1IP / RFU, CAPN2 / Fold change vs veh, CAPN2 / RFU, MED14 / Fold change vs veh, MED14 / RFU, SNORA58 / Fold change vs veh, SNORA58 / RFU, C1orf63 / Fold change vs veh, C1orf63 / RFU, LRRFIP1 / Fold change vs veh, LRRFIP1 / RFU, NDUFAF7 / Fold change vs veh, NDUFAF7 / RFU, SLC12A2 / Fold change vs veh, SLC12A2 / RFU, IBTK / Fold change vs veh, IBTK / RFU, ESF1 / Fold change vs veh, ESF1 / Fold change vs veh, TMEM50B / RFU, TAOK1 / Fold change vs veh, TAOK1 / RFU, ACBD3 / Fold change vs veh, ACBD3 / RFU, TMA16 / Fold change vs veh, TMA16 / RFU, RWDD3 / Fold change vs veh, RWDD3 / RFU, BCAT1 / Fold change vs veh, BCAT1 / RFU, EDEM3 / Fold change vs veh, EDEM3 / RFU, TMEM33 / Fold change vs veh, TMEM33 / RFU, WDR75 / Fold change vs veh, WDR75 / RFU, AHCTF1 / Fold change vs veh, AHCTF1 / RFU, TFRC / Fold change vs veh, TFRC / RFU, ZDHHC17 / Fold change vs veh, ZDHHC17 / RFU, NOM1 / Fold change vs veh, NOM1 / RFU, ARL8B / Fold change vs veh, ARL8B / RFU, ZBTB11 / Fold change vs veh, ZBTB11 / RFU, TAMM41 / Fold change vs veh, TAMM41 / RFU, KIAA1704 /// LOC100996395 / Fold change vs veh, KIAA1704 /// LOC100996395 / RFU, ING1 / Fold change vs veh, ING1 / RFU, TRMT61B / Fold change vs veh, TRMT61B / RFU, FUBP3 / Fold change vs veh, FUBP3 / RFU, TP53 / Fold change vs veh, TP53 / RFU, TNKS2 / Fold change vs veh, TNKS2 / RFU, ZFP14 / Fold change vs veh, ZFP14 / RFU, ACTR2 / Fold change vs veh, ACTR2 / RFU, PPP3R1 / Fold change vs veh, PPP3R1 / RFU, PIK3R1 / Fold change vs veh, PIK3R1 / RFU, HNRNPA1 / Fold change vs veh, HNRNPA1 / RFU, RNF170 / Fold change vs veh, RNF170 / RFU, ZNF28 / Fold change vs veh, ZNF28 / RFU, RNGTT / Fold change vs veh, RNGTT / RFU, OGT / Fold change vs veh, OGT / RFU, BRD1 / Fold change vs veh, BRD1 / RFU, MARS / Fold change vs veh, MARS / RFU, ZNF655 / Fold change vs veh, ZNF655 / RFU, FAHD1 / Fold change vs veh, FAHD1 / RFU, BDP1 / Fold change vs veh, BDP1 / RFU, LRRCC1 / Fold change vs veh, LRRCC1 / RFU, ARID1A / Fold change vs veh, ARID1A / RFU, ZNF146 / Fold change vs veh, ZNF146 / RFU, ZNF330 / Fold change vs veh, ZNF330 / RFU, GPN3 / Fold change vs veh, GPN3 / RFU, C9orf123 / Fold change vs veh, C9orf123 / RFU, N4BP2L2 / Fold change vs veh, N4BP2L2 / RFU, ARFIP1 / Fold change vs veh, ARFIP1 / RFU, FAM179B / Fold change vs veh, FAM179B / RFU, BCL10 / Fold change vs veh, BCL10 / RFU, UHRF1BP1L / Fold change vs veh, UHRF1BP1L / RFU, BET1 / Fold change vs veh, BET1 / RFU, CNOT2 / Fold change vs veh, CNOT2 / RFU, ZNF268 / Fold change vs veh, ZNF268 / Fold change vs veh, ZNF507 / RFU, DGCR2 / Fold change vs veh, DGCR2 / RFU, WDSUB1 / Fold change vs veh, WDSUB1 / Fold change vs veh, HSP90B1 /// MIR3652 / RFU, ADSS / Fold change vs veh, ADSS / RFU, GK / Fold change vs veh, GK / RFU, ZNF148 / Fold change vs veh, ZNF148 / RFU, TAF9 / Fold change vs veh, TAF9 / RFU, SLC1A5 / Fold change vs veh, SLC1A5 / RFU, SLMO2 / Fold change vs veh, SLMO2 / RFU, ABCC4 / Fold change vs veh, ABCC4 / RFU, LOC101060439 /// RAP1B / Fold change vs veh, LOC101060439 /// RAP1B / RFU, RFX7 / Fold change vs veh, RFX7 / RFU, GTPBP10 / Fold change vs veh, GTPBP10 / RFU, CNEP1R1 / Fold change vs veh, CNEP1R1 / RFU, BIVM-ERCC5 /// ERCC5 / Fold change vs veh, BIVM-ERCC5 /// ERCC5 / RFU, ILF3 / Fold change vs veh, ILF3 / RFU 11762660_at / Fold change /veh 11762660_at / RFU VCAN (11757783_s_at) / Fold change /veh VCAN (11757783_s_at) / RFU DDX43 (11728927_at) / Fold change /veh DDX43 (11728927_at) / RFU KRT8 (11758188_x_at) / Fold change /veh KRT8 (11758188_x_at) / RFU NKD1 (11759106_at) / Fold change /veh NKD1 (11759106_at) / RFU SRD5A1 (11742802_a_at) / Fold change /veh SRD5A1 (11742802_a_at) / RFU TPSAB1 /// TPSB2 (11721975_s_at) / Fold change /veh TPSAB1 /// TPSB2 (11721975_s_at) / RFU GSTM3 (11746129_a_at) / Fold change /veh GSTM3 (11746129_a_at) / RFU IL23R (11737362_x_at) / Fold change /veh IL23R (11737362_x_at) / RFU TMEM51 (11727254_a_at) / Fold change /veh TMEM51 (11727254_a_at) / RFU PIWIL2 (11732686_x_at) / Fold change /veh PIWIL2 (11732686_x_at) / RFU ORM1 (11744905_x_at) / Fold change /veh ORM1 (11744905_x_at) / RFU CCDC152 (11743942_at) / Fold change /veh CCDC152 (11743942_at) / RFU ECM1 (11717891_a_at) / Fold change /veh ECM1 (11717891_a_at) / RFU IL23R (11748794_a_at) / Fold change /veh IL23R (11748794_a_at) / RFU TNFAIP8L3 (11732012_x_at) / Fold change /veh TNFAIP8L3 (11732012_x_at) / RFU MBOAT4 (11741988_at) / Fold change /veh MBOAT4 (11741988_at) / RFU 11764193_at / Fold change /veh 11764193_at / RFU TMEM53 (11763286_at) / Fold change /veh TMEM53 (11763286_at) / RFU MAGEB2 (11727129_at) / Fold change /veh MAGEB2 (11727129_at) / RFU TMEM200A (11744735_a_at) / Fold change /veh TMEM200A (11744735_a_at) / RFU CCDC152 (11751479_a_at) / Fold change /veh CCDC152 (11751479_a_at) / RFU FAM211A (11726209_a_at) / Fold change /veh FAM211A (11726209_a_at) / RFU RGS16 (11746705_a_at) / Fold change /veh RGS16 (11746705_a_at) / RFU VCAN (11755009_s_at) / Fold change /veh VCAN (11755009_s_at) / RFU RHOB (11743442_s_at) / Fold change /veh RHOB (11743442_s_at) / RFU RGS16 (11720943_a_at) / Fold change /veh RGS16 (11720943_a_at) / RFU RGS16 (11720944_at) / Fold change /veh RGS16 (11720944_at) / RFU, VPS4B / Fold change vs veh, VPS4B / RFU, CREB1 / Fold change vs veh, CREB1 / RFU, DNAJC13 / Fold change vs veh, DNAJC13 / RFU, GNAQ / Fold change vs veh, GNAQ / RFU, CDK5R1 / Fold change vs veh, CDK5R1 / RFU, ZRANB3 / Fold change vs veh, ZRANB3 / RFU, CUL4A / Fold change vs veh, CUL4A / RFU, CCNY / Fold change vs veh, CCNY / RFU, UFL1 / Fold change vs veh, UFL1 / RFU, COG3 / Fold change vs veh, COG3 / RFU, DIAPH2 / Fold change vs veh, DIAPH2 / RFU, SKA2 / Fold change vs veh, SKA2 / RFU, AFF3 / Fold change vs veh, AFF3 / RFU, LMF1 / Fold change vs veh, LMF1 / RFU, IPO11 / Fold change vs veh, IPO11 / RFU, DFFB / Fold change vs veh, DFFB / RFU, FOXP1 / Fold change vs veh, FOXP1 / RFU, CARD8 / Fold change vs veh, CARD8 / RFU, STRN3 / Fold change vs veh, STRN3 / RFU, ADK / Fold change vs veh, ADK / RFU, RASSF2 / Fold change vs veh, RASSF2 / RFU, WIPF1 / Fold change vs veh, WIPF1 / RFU, LARP1B / Fold change vs veh, LARP1B / RFU, RASA1 / Fold change vs veh, RASA1 / RFU, RB1 / Fold change vs veh, RB1 / RFU, PPFIA1 / Fold change vs veh, PPFIA1 / RFU, MAT2A / Fold change vs veh, MAT2A / RFU, CCT5 / Fold change vs veh, CCT5 / RFU, WDR92 / Fold change vs veh, WDR92 / RFU, CUX1 / Fold change vs veh, CUX1 / RFU, TTC7A / Fold change vs veh, TTC7A / RFU, TMEM135 / Fold change vs veh, TMEM135 / RFU, DEPTOR / Fold change vs veh, DEPTOR / RFU, CPM / Fold change vs veh, CPM / RFU, DNAJB6 / Fold change vs veh, DNAJB6 / RFU, CACNA2D3 / Fold change vs veh, CACNA2D3 / RFU, DTX4 / Fold change vs veh, DTX4 / RFU, TFCP2 / Fold change vs veh, TFCP2 / RFU, GMCL1 /// GMCL1P1 / Fold change vs veh, GMCL1 /// GMCL1P1 / RFU, AEBP2 / Fold change vs veh, AEBP2 / RFU, SNHG1 /// SNORD22 /// SNORD25 /// SNORD26 /// SNORD27 /// SNORD28 /// SNORD29 /// SNORD31 / Fold change vs veh, SNHG1 /// SNORD22 /// SNORD25 /// SNORD26 /// SNORD27 /// SNORD28 /// SNORD29 /// SNORD31 / Fold change (Aza/veh), C12orf56 (ProbeSet 11735607_a_at) / Fold change (ACY-1035/veh), C12orf56 (ProbeSet 11735607_a_at) / Fold change (Aza/veh), FGFR1OP (ProbeSet 11751329_s_at) / Fold change (ACY-1035/veh), FGFR1OP (ProbeSet 11751329_s_at) / Fold change (Aza/veh), VPS36 (ProbeSet 11739960_a_at) / Fold change (ACY-1035/veh), VPS36 (ProbeSet 11739960_a_at) / RFU SYPL1 (11715823_x_at) / Fold change /veh SYPL1 (11715823_x_at) / RFU IGFBP7 (11715501_s_at) / Fold change /veh IGFBP7 (11715501_s_at) / RFU REEP3 (11722064_at) / Fold change /veh REEP3 (11722064_at) / RFU IGLL1 (11728026_x_at) / Fold change /veh IGLL1 (11728026_x_at): dose or concentration left out as unconfirmed
Settings: ProbeSet 11722463_a_at; LIST B

Nc1ccc(-c2cccs2)cc1NC(=O)c1ccc2c(c1)cc(C1CC1)n2CCN1CCOCC1 [ACY-1035]
RFU, TNKS2: 53.51 RFU
